The structures appear in SMILES notation. Where “and” joins values, the source holds several entries; their conditions need not be identical. Equal entries are not always repeated.

For this experiment, the system named is Drosophila melanogaster flies with human G12V kRAS expressed in the wing. As to the kind of experiment: Fly screen: reversal of crinkled wing phenotype. The class given is in vivo. An excerpt:
The Tosk approach uses Drosophila melanogaster flies as media for initial screening for RAS modulating compounds. Tosk has created a fruit fly with human kRAS G12V expressed in its wing. The mutant kRAS expressed in the fly wing appears functional, even though it operates in the presence of the other physiological systems present in the fly. The fly phenotype in the mutant fly is a crimped wing which can be reversed to a great extent if the fly is fed food enriched with an effective kRAS inhibitor. The fly kRAS suppressor screen can provide a more predictive model compared to conventional discovery methods because the kRAS is in its natural (i.e., not artificial/isolated/manipulated) environment anchored to the plasma membrane, positioned correctly, and surrounded by appropriate neighboring chemicals. Several reports have emphasized the importance of kRAS positioning and environment to realize protein activity.
2. Fly with Crinkled Wing Phenotype.
1. Production of Fly Food/Test Article Mix. A Biomek 2000 robotic arm is used to pipet 40 μL of a 10 mM DMSO solution of Test Article into a 35 mL polypropylene Drosophila fly vial (VWR 89092-728) containing 10 mL ETOH. A half teaspoon blue fly food (4-24, Carolina Biological Supply), is added and the tubes are vortexed and placed into a HT-4X GeneVac to remove the DMSO and ETOH. The tube is vortexed, 4 ml water added, and vortexed again. Control samples are tubes with fly food prepared with just 40 μL DMSO, no Test Article, or 40 μL of a DMSO solution containing 50 μM of the trametanib positive control. 2. Screen. Several hundred male G12V kRAS flies and several hundred GAL4 females are placed in a custom Plexiglas population cage (12″×12″×8″) made fly condo containing grape agar and yeast paste prepared using a published protocol. Embryos from the container are washed off the grape agar onto a sieve and re-suspended in an aqueous sucrose/salt/triton solution. An aliquot of this solution is analyzed using a dissecting microscope to determine the embryo concentration. The appropriate solution to deliver 150 embryos is then added to the fly food/Test article vials. The vial is capped with a cellulose fly bottle plug. […] The vials are incubated at 23° C. in a temperature-controlled room for 12 days. 3. Analysis. After 12 days, all flies in a vial are observed under a microscope following CO2 anesthesia for the number of phenotype reversals compared to the total number of viable flies. Cell culture testing is typically performed for any Test Article showing evidence of >25% phenotype reversal. The trametinib positive control provides reversal of the crimped/crinkled phenotype for 50-75% of the flies.
A library of over 16,000 distinct chemicals was purchased from ChemDiv, San Diego, Calif. All the compounds were evaluated in the fly screen described above for the ability to reverse the crinkled wing phenotype. […] One of the three compounds was Structure 1.

`CC(=O)Nc1cccc(-n2c(=O)n(C3CC3)c(=O)c3c(Nc4ccc(I)cc4F)n(C)c(=O)c(C)c32)c1` [Trametinib]: the “Reversal of the crimped/crinkled phenotype, share of the flies (positive control, general)” value (40 μL of 50 μM DMSO solution in fly food, 12 days) is 50-75%. In addition, the “Flies with Reversed Phenotype” value was 29% (Experiment 1, 0.5 μM in fly food); 63% and 64% (Experiment 2, 0.5 μM in fly food); 63% and 64% (Experiment 2, 0.5 μM in fly food, listed as trametinib).

The values are drawn from patent publication US11390626B2, “Pyrazolopyrimidine modulators of RAS GTPase” (Tosk, Inc., priority 2019, dated 2022).
